The assay has as its system HepG2 cell line. Description: MTT anti-proliferative assay, HepG2. The assay is classed as cell-based. The note with it: Homo sapiens, 48 h, three independent experiments, read-out: In vitro cytotoxicity IC50, HepG2. The method, then:
In vitro antiproliferative activities of the target molecules were assessed against two human cancer cell lines namely, hepatocellular carcinoma (HepG2) and colorectal carcinoma (HCT-116) using MTT assay.
The anti-proliferative activity of the synthesized compounds was assessed using MTT assay protocol. A panel of human cancer cell lines namely, colorectal carcinoma (HCT-116) and hepatocellular carcinoma (HepG2) was used in this test. Doxorubicin was used as a positive control. The cell lines were got from ATCC (American Type Culture Collection) via the Holding company for biological products and vaccines (VACSERA, Cairo, Egypt). The anti-proliferative activities of the tested compounds were determined quantitatively as follows:
At first, the cells were cultured into a medium of RPMI-1640 with 10% fetal bovine serum. Then, two different antibiotics were added at 37°C in a 5% CO2 incubator: penicillin (100 units/mL) and streptomycin (100 μg/mL). Next, we seeded the cells in a 96-well plate by a density of 1.0 x 10^4 cells / well at 37°C for 48 h under 5% CO2. The synthesized compounds with different concentrations were applied into the cell lines and incubated for 48 h. After 48 h, 20 μl of MTT solution (5mg/mL) was added and incubated for 4 h. Then, DMSO (100 μl) was added into each well to dissolve the formed purple formazan. After that, a colorimetric assay was measured and recorded at absorbance of 570 nm using a plate reader (EXL 800, USA). The relative cell viability in percentage was calculated as (A570 of treated samples/A570 of untreated sample) X 100.
S2: Biological evaluation
S2.1. In vitro cytotoxic activity
The anti-proliferative activity of the synthesized compounds was assessed using MTT assay protocol. A panel of human cancer cell lines namely, colorectal carcinoma (HCT-116) and hepatocellular carcinoma (HepG2) was used in this test. As we targeted the DNA and Topo […]
cell lines were got from ATCC (American Type Culture Collection) via the Holding company for biological products and vaccines (VACSERA, Cairo, Egypt). The anti -proliferative activities of the tested compounds were determined quantitatively as follows:
At first, the cells were cultured into a medium of RPMI-1640 with 10% fetal bovine serum.
Then, two different antibiotics were added at 37 ᵒC in a 5% CO2 incubator: penicillin (100 units/mL) and streptomycin (100 µg/mL). Next, we seeded the cells in a 96 -well plate by a density of 1.0 x 10^4 cells / well at 37 ᵒC for 48 h under 5% CO2. The synthesized compounds with different concentrations were applied into the cell lines and incubated for 48 h. After 48 h, 20 µl of MTT solution (5mg/mL) was added and incubated for 4 h. Then, DMSO (100 µl) was added into each well to dissolve the formed purple formazan. After that, a colorimetric assay was measured and recorded at absorbance of 570 nm using a plate reader (EXL 800, USA). The relative cell viability in percentage was calculated as (A570 of treated samples/A570 of untreated sample) X 100. […]
A general note: Formazan colour is commonly taken as a measure of viable cells.

With `CCCNc1nc2ccccc2c2nnc(C(F)(F)F)n12` [Compound 16, N-Propyl-3-(trifluoromethyl)-[1,2,4]triazolo[4,3-c]quinazolin-5-amine], the IC50 (usually the point on the concentration scale where inhibition reaches its midpoint) amounted to 6.29 ± 0.3 µM.

Values taken from PMC9886266, “New [1,2,4]triazolo[4,3-c]quinazolines as intercalative Topo II inhibitors: Design, synthesis, biological evaluation, and in silico studies” (PLOS ONE, 2023).
